# Experiments:
# [1] = molecular target: Fibroblast growth factor receptor 2 (Homo sapiens, UniProt P21802); assay: Inhibition of FGFR2 (unknown origin) using Tyr04 peptide as substrate incubated for 1 hr in presence of ATP by FRET based Z'-LYTE assay
# [2] = molecular target: Fibroblast growth factor receptor 1 (Homo sapiens, UniProt P11362); assay: Inhibition of FGFR1 (unknown origin) using Tyr04 peptide as substrate incubated for 1 hr in presence of ATP by FRET based Z'-LYTE assay
# [3] = molecular target: Fibroblast growth factor receptor 3 (Homo sapiens, UniProt P22607); assay: Inhibition of FGFR3 (unknown origin) using Tyr04 peptide as substrate incubated for 1 hr in presence of ATP by FRET based Z'-LYTE assay
# [4] = molecular target: Fibroblast growth factor receptor 4 (Homo sapiens) (UniProt P22455); assay: Reversible covalent binding affinity to recombinant His-tagged human FGFR4 expressed in baculovirus expression system assessed as recovery of kinase activity preincubated for 120 mins followed by dialysis of protein for 3 days by MALDI-TOF MS analysis relative to control; details: time 4440.0 min
# [5] = molecular target: T1, Tyrosine-protein kinase JAK3 (Homo sapiens, UniProt P52333); assay: Inhibition of JAK3 (unknown origin) incubated for 1 hr in presence of ATP and substrate by FRET based Z'-LYTE assay
# T1 sequence (P52333 whole entry): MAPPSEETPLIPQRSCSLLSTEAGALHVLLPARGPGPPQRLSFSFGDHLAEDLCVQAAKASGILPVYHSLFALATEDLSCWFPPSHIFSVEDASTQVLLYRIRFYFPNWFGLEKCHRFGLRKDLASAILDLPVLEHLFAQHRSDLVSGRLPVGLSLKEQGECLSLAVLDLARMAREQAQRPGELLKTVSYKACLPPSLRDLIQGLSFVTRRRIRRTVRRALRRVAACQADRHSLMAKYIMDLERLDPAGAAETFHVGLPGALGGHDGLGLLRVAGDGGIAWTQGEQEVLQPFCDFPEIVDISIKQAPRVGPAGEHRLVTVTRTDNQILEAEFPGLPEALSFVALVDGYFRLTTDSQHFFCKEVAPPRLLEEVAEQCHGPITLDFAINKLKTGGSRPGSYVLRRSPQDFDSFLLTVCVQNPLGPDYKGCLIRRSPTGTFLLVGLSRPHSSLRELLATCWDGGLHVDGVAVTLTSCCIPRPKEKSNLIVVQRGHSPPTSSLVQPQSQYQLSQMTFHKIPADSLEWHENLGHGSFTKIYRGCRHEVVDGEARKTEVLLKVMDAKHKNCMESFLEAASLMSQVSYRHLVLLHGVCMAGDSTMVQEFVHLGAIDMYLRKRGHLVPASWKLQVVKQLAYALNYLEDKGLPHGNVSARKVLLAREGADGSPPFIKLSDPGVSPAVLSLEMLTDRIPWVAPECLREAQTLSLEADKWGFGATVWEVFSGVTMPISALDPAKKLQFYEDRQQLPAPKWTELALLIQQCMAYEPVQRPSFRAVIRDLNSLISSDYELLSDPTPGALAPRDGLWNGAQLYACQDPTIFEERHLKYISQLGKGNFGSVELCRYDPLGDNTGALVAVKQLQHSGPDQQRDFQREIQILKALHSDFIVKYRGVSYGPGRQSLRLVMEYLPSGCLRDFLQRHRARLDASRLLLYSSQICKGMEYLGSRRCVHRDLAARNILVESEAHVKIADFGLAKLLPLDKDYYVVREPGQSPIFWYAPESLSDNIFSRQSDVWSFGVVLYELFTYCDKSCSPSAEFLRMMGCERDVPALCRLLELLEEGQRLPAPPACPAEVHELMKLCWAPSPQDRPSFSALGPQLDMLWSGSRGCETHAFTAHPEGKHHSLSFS
# Chain of Fibroblast growth factor receptor 2 (P21802 whole entry): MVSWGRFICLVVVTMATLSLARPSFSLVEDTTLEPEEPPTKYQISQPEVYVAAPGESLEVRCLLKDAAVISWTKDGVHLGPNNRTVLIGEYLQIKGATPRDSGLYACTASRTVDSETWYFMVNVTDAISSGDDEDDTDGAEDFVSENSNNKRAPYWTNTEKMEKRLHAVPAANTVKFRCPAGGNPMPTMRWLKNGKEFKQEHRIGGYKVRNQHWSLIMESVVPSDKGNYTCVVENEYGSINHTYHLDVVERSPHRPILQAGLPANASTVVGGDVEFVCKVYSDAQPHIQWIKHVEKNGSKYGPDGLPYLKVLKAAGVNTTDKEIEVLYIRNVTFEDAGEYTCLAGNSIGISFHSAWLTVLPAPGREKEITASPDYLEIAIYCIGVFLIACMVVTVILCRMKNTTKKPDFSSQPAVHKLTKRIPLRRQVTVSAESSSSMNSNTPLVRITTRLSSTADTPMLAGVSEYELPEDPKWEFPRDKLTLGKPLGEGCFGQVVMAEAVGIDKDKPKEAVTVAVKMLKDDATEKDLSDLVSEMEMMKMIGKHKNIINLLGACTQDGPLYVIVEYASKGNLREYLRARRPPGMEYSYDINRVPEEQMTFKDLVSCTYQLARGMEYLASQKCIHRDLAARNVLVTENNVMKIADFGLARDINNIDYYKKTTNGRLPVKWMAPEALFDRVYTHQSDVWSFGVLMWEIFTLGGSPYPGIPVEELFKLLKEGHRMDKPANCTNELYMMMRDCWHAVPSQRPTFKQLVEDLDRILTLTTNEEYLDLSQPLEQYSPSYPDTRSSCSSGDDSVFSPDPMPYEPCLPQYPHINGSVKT
# Chain of Fibroblast growth factor receptor 1 (P11362 whole entry): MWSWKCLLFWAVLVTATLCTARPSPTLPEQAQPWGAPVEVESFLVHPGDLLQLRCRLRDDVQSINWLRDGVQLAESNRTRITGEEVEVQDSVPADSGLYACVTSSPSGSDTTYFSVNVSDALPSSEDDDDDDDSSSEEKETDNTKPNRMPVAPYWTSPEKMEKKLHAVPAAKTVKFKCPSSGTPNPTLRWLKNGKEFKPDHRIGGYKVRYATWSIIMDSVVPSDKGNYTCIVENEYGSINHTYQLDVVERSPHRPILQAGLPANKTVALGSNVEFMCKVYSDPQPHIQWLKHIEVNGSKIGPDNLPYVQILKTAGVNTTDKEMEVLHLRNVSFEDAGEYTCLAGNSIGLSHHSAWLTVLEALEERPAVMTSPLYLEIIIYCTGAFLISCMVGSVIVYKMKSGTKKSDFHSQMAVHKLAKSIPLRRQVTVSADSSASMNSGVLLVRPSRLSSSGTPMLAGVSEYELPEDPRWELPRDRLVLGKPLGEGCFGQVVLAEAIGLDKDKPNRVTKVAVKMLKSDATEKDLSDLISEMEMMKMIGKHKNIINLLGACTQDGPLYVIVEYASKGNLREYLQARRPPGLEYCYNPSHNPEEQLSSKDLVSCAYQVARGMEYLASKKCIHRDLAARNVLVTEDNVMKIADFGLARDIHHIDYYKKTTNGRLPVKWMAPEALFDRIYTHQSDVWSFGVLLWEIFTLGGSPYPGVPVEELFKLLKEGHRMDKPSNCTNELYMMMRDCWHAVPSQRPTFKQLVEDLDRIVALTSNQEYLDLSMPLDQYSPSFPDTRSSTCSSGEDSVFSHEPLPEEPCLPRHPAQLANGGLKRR
# Chain of Fibroblast growth factor receptor 3 (P22607 whole entry): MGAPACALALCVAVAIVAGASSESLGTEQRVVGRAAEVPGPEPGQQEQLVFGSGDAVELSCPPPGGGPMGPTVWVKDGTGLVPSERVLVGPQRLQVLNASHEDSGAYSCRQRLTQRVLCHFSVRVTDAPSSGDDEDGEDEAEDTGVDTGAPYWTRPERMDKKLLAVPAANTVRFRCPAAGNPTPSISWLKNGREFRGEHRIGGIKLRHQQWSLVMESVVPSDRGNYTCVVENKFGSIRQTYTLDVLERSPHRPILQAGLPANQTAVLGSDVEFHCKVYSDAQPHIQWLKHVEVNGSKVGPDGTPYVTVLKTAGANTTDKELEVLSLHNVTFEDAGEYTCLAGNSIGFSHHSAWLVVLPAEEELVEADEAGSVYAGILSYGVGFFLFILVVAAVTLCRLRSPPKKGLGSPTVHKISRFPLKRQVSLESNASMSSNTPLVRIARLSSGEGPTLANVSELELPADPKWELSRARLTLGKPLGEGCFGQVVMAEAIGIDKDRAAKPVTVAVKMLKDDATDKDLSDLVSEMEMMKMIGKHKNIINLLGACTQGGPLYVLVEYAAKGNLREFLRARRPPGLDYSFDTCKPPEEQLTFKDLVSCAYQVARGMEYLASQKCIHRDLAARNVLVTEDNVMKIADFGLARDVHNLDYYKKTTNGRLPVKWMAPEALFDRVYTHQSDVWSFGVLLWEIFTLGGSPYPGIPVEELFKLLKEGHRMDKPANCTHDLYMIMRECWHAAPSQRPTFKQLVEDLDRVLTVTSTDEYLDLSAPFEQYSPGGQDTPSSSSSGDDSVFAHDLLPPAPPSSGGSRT
# Chain of Fibroblast growth factor receptor 4 (Homo sapiens) (P22455 22-802 limits assumed): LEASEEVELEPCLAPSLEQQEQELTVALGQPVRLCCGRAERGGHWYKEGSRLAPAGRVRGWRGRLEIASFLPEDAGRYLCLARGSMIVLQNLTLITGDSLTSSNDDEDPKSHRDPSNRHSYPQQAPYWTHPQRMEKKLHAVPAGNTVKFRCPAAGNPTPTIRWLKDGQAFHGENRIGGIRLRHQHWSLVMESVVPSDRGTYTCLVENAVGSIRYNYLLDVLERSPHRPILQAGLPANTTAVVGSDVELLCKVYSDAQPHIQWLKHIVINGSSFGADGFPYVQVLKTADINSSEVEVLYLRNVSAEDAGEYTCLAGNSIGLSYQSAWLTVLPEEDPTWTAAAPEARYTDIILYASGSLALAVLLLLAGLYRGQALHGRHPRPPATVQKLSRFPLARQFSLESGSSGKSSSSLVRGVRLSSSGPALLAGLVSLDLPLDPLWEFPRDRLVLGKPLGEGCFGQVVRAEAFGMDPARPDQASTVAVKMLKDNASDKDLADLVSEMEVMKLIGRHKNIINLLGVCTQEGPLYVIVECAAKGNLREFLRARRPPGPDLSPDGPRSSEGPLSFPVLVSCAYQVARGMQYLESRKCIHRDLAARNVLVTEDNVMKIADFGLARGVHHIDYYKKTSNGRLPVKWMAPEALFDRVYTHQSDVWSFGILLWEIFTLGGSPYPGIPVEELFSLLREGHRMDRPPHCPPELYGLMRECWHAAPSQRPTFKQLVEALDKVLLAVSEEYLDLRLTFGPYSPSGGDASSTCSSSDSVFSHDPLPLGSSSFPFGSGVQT
structure (smiles),measurement,setting,value
COc1cc(NC(=O)N2CCCc3ccc(C(=O)C(F)(F)F)nc32)ncc1C#N,IC50,[1],> 10 µM
same,IC50,[2],> 10 µM
same,IC50,[3],> 10 µM
CCOc1cc(NC(=O)N2CCCc3ccc(C(=O)C(F)(F)F)nc32)ncc1C#N,IC50,[1],> 10 µM
same,IC50,[2],> 10 µM
same,IC50,[3],> 10 µM
COCCOc1cc(NC(=O)N2CCCc3ccc(C(=O)C(F)(F)F)nc32)ncc1C#N,IC50,[1],> 10 µM
same,IC50,[2],> 10 µM
same,IC50,[3],> 10 µM
COCCNc1cc(NC(=O)N2CCCc3ccc(C(=O)C(F)(F)F)nc32)ncc1C#N,IC50,[1],> 10 µM
same,IC50,[2],> 10 µM
same,IC50,[3],> 10 µM
N#Cc1cnc(NC(=O)N2CCCc3ccc(C(=O)C(F)(F)F)nc32)cc1OC1CCOC1 (stereo not given),IC50,[1],> 10 µM
same,IC50,[2],> 10 µM
same,IC50,[3],> 10 µM
N#Cc1cnc(NC(=O)N2CCCc3ccc(C(=O)C(F)(F)F)nc32)cc1OC1CCCCC1,IC50,[1],> 10 µM
same,IC50,[2],> 10 µM
same,IC50,[3],> 10 µM
N#Cc1cnc(NC(=O)N2CCCc3ccc(C(=O)C(F)(F)F)nc32)cc1OC1CCCC1,IC50,[1],> 10 µM
same,IC50,[2],> 10 µM
same,IC50,[3],> 10 µM
Cc1ccc(C(=O)Nc2ccc(CN3CCN(C)CC3)c(C(F)(F)F)c2)cc1C#Cc1cnc2cccnn12,Activity,[4],100%
O=C(c1ccc(-c2nc3cnc4[nH]ccc4c3n2C2CCCCC2)o1)C(F)(F)F,IC50,[5],0.0872 µM
CC(C)Oc1cc(NC(=O)N2CCCc3ccc(C=O)nc32)ncc1C#N,IC50,[1],> 10 µM
same,IC50,[2],> 10 µM
same,IC50,[3],> 10 µM
CC(C)Oc1cc(NC(=O)N2CCCc3ccc(C(=O)C(F)(F)F)nc32)ncc1C#N,IC50,[1],> 10 µM
same,IC50,[2],> 10 µM
same,IC50,[3],> 10 µM
CCCOc1cc(NC(=O)N2CCCc3ccc(C(=O)C(F)(F)F)nc32)ncc1C#N,IC50,[1],> 10 µM
same,IC50,[2],> 10 µM
same,IC50,[3],> 10 µM
CCCCOc1cc(NC(=O)N2CCCc3ccc(C(=O)C(F)(F)F)nc32)ncc1C#N,IC50,[1],> 10 µM
same,IC50,[2],> 10 µM
same,IC50,[3],> 10 µM
